Measured values from patent US20030134292A1, “Thermostable DNA polymerases and methods of making same” (priority 2001, published 2003).

Columns and labels:
Type in all cases: biochemical
[1] = molecular target: T1, Taq Δ271 F667Y E681W (polymerase B) (Thermus aquaticus, UniProt P19821, E681W/F272M/F667Y); experiment: DNA polymerase activity assay with detergent or additive, Taq Δ271 F667Y E681W purified without detergent
T1 construct: made in house; host or cells: E. coli
Procedure: (§1) DNA polymerase activity was measured by running reactions of 50 μL containing 25 mM TAPS (tris-hydroxymethyl-methylaminopropane sulfonic acid) buffer, pH 9.3 (measured at 25° C.), 50 mM KCl, 2 mM MgCl2, 1 mM 2-mercaptoethanol, 0.2 mM each of dGTP, dCTP, dTTP, 0.2 mM [α-^33P]-dATP (0.05-0.1 Ci/mmol) and 0.4 mg/mL activated salmon sperm DNA. The reaction mixture (45 μL) was pre-heated to 74° C. and diluted polymerase (5 μL) added with thorough mixing. After 10 minutes of further incubation at 74° C., the reaction was stopped by the addition of 10 μL of 60 mM EDTA and the entire mixture placed at 0° C. Acid-precipitable radioactivity was determined on an aliquot ([…]) by diluting with 1 ml of 2 mM EDTA containing 0.05 mg/ml salmon sperm DNA and adding 1 mL of 20% (w/v) trichloroacetic acid, 2% (w/v) sodium pyrophosphate (Na4P2O7 10H2O) and incubating on ice for at least 15 minutes. Precipitated DNA was collected by filtering through 2.4 cm GFC filter disks (Schleichter and Schuell) and washed 7 times with 5ml of with 1 N HCl, 0.1 M sodium pyrophosphate. The filter was placed in 3 ml of aqueous scintillation counting fluid and ^33P-specific radioactivity determined by scintillation counting.
(§2) For the assays presented in Tables 5 and 6, the polymerase was diluted 10-5000 fold in a buffer containing 25 mM Tris-HCl pH 8.0, 50 mM KCl, 1 mM 2-mercaptoethanol, and the indicated concentration of detergent or other additive. Where possible, only reactions which incorporated 20- 100 pmol of dAMP in 10 minutes were used for calculation of activity.

[2] = molecular target: T2, Taq Δ271 F667Y (polymerase A) (Thermus aquaticus, UniProt P19821, F272M/F667Y); experiment: DNA polymerase activity assay with detergent or additive, Taq Δ271 F667Y purified without detergent
T2 construct: made in house; host or cells: E. coli
T2 sequence (P19821 272-832 F272M/F667Y): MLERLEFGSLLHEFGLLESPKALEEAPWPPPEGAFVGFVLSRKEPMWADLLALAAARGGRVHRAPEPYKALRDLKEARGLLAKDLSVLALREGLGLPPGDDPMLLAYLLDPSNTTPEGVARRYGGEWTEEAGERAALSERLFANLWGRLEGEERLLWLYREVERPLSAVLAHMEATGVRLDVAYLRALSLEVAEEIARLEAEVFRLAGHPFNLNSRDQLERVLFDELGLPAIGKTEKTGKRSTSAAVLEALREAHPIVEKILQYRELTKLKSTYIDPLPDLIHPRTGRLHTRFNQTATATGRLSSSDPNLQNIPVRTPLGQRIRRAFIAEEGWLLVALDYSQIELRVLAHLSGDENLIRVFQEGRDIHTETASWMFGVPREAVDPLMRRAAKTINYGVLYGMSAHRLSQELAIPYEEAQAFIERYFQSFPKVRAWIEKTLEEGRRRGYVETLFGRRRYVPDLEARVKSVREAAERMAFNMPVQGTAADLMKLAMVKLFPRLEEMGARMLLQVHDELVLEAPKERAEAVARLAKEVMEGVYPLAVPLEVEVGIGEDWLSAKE
Procedure: as §1, §2

[3] = molecular target: T3, Tth Δ273 F668Y (polymerase C) (Thermus thermophilus, UniProt P52028, F274M/F669Y); experiment: DNA polymerase activity assay with detergent or additive, Tth Δ273 F668Y purified without detergent
T3 construct: made in house; host or cells: E. coli
T3 sequence (P52028 274-834 F274M/F669Y): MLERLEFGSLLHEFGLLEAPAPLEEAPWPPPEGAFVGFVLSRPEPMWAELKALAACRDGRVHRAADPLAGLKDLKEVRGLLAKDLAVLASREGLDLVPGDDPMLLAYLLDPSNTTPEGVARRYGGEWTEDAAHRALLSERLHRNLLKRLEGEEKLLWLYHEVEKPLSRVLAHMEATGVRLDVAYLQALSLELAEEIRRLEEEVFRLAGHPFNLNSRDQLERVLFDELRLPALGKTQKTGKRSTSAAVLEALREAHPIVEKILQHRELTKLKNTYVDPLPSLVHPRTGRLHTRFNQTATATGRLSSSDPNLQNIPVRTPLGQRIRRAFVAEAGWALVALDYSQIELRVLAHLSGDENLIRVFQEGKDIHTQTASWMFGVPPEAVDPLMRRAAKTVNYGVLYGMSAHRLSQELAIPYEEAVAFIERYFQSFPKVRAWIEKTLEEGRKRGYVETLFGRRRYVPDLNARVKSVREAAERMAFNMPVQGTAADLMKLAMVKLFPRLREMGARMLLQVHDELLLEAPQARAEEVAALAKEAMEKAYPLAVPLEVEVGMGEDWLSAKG
Procedure: as §1, §2

[4] = additive final concentration 0.01% (w/v)
[5] = additive final concentration 0.1% (w/v)
[6] = additive final concentration 0.001% (w/v) in assay reaction mixture
[7] = additive final concentration 0.05% (w/v)
[8] = additive final concentration 0.2% (w/v)

T1 sequence (P19821 272-832 F272M/F667Y/E681W): as the sequence (P19821 272-832 F272M/F667Y) above, with E410W counted along it

| Compound | Taq Δ271 F667Y E681W activity relative to 0.5% each NP-40 and Tween 20 [1, 4] | Taq Δ271 F667Y E681W activity relative to 0.5% each NP-40 and Tween 20 [1, 5] | Taq Δ271 F667Y E681W activity relative to 0.5% each NP-40 and Tween 20 ([1]; additive final concentration 0.25% (w/v)) | Taq Δ271 F667Y E681W activity relative to 0.5% each NP-40 and Tween 20 ([1]; additive final concentration 0.5% (w/v)) | Taq Δ271 F667Y activity relative to 0.5% each NP-40 and Tween 20 [2, 6] | Taq Δ271 F667Y activity relative to 0.5% each NP-40 and Tween 20 [2, 4] | Taq Δ271 F667Y activity relative to 0.5% each NP-40 and Tween 20 [2, 7] | Tth Δ273 F668Y activity relative to 0.5% each NP-40 and Tween 20 [3, 6] | Tth Δ273 F668Y activity relative to 0.5% each NP-40 and Tween 20 [3, 4] | Tth Δ273 F668Y activity relative to 0.5% each NP-40 and Tween 20 [3, 7] | Polymerase B Activity (%) ([1]; detergent 0.1% (w/v)) | Taq Δ271 F667Y activity relative to 0.5% each NP-40 and Tween 20 [2, 5] | Tth Δ273 F668Y activity relative to 0.5% each NP-40 and Tween 20 [3, 5] | Polymerase C Activity (%) ([3]; detergent 0.1% (w/v)) | Taq Δ271 F667Y E681W activity relative to 0.5% each NP-40 and Tween 20 [1, 7] | Taq Δ271 F667Y E681W activity relative to 0.5% each NP-40 and Tween 20 [1, 8] | Taq Δ271 F667Y activity relative to 0.5% each NP-40 and Tween 20 [2, 8] | Tth Δ273 F668Y activity relative to 0.5% each NP-40 and Tween 20 [3, 8] |
| --- | --- | --- | --- | --- | --- | --- | --- | --- | --- | --- | --- | --- | --- | --- | --- | --- | --- | --- |
| CCCCCCCCO[C@@H]1O[C@H](CO)[C@H](O)[C@H](O)[C@H]1O [N-octyl β-D-galactopyranoside] | − − − (Activity < 20%) | − (Activity 50-60%) | + (Activity 60-70%) | − − − (Activity < 20%) | − − − (Activity < 20%) | − − − (Activity < 20%) | − − (Activity 20-50%) | − − (Activity 20-50%) | − − (Activity 20-50%) | + + + (Activity > 80% (relative to activity using 0.5% each NP-40 and Tween 20)) | – | – | – | – | – | – | – | – |
| CCCCCCCCO[C@@H]1O[C@H](CO)[C@@H](O)[C@H](O)[C@H]1O [Octyl Glucopyranoside, n-octyl-β-D-glucopyranoside] | − − − (Activity < 20%) | + + + (Activity > 80% (relative to activity using 0.5% each NP-40 and Tween 20)) | – | – | – | − − − (Activity < 20%) | – | – | − − − (Activity < 20%) | – | 1 | − − (Activity 20-50%) | + + + (Activity > 80% (relative to activity using 0.5% each NP-40 and Tween 20)) | 79.7 | – | – | – | – |
| C[C@H](CCC(=O)[O-])[C@H]1CC[C@H]2[C@@H]3[C@H](O)C[C@@H]4C[C@H](O)CC[C@]4(C)[C@H]3C[C@H](O)[C@]12C.[Na+] [Sodium Cholate] | − − − (Activity < 20%) | − − − (Activity < 20%) | – | – | – | − − − (Activity < 20%) | − − − (Activity < 20%) | – | − − − (Activity < 20%) | − − − (Activity < 20%) | – | − − − (Activity < 20%) | − − − (Activity < 20%) | – | − − − (Activity < 20%) | – | – | – |
| CCCCCCCC[N+](C)(C)CCCS(=O)(=O)[O-] [Zwittergent 3-08] | – | − − (Activity 20-50%) | – | – | – | – | − − − (Activity < 20%) | – | – | − − (Activity 20-50%) | – | − − (Activity 20-50%) | − (Activity 50-60%) | – | − − − (Activity < 20%) | − − (Activity 20-50%) | − − (Activity 20-50%) | + (Activity 60-70%) |
| CCCCCCCCCC[N+](C)(C)CCCS(=O)(=O)[O-] [Zwittergent 3-10] | – | − − (Activity 20-50%) | – | – | – | – | − − (Activity 20-50%) | – | – | − − (Activity 20-50%) | – | − − (Activity 20-50%) | + (Activity 60-70%) | – | − − − (Activity < 20%) | − − (Activity 20-50%) | − (Activity 50-60%) | + (Activity 60-70%) |
